Test results reported in PubChem BioAssay (NCI).
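Growth conditions: 96-well plates. Treatment: test compound, 48 hours, 5 concentrations. Analysis: linear interpolation between bracketing concentrations; unreached endpoints set to highest concentration. TGI denotes the concentration required for complete inhibition of growth.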

Legend:
Experiment in all cases: NCI tumour cell line growth inhibition, 48 h
A498 renal = tested on: A498 renal
A549 NSCLC = tested on: A549 NSCLC
CCRF-CEM leukemia = tested on: CCRF-CEM leukemia
COLO 205 colon = tested on: COLO 205 colon
DLD-1 colon = tested on: DLD-1 colon
DMS 114 small cell lung = tested on: DMS 114 small cell lung
DMS 273 small cell lung = tested on: DMS 273 small cell lung
EKVX NSCLC = tested on: EKVX NSCLC
HCC-2998 colon = tested on: HCC-2998 colon
HCT-116 colon = tested on: HCT-116 colon
HCT-15 colon = tested on: HCT-15 colon
HL-60(TB) leukemia = tested on: HL-60(TB) leukemia
HOP-18 NSCLC = tested on: HOP-18 NSCLC
HOP-62 NSCLC = tested on: HOP-62 NSCLC
HOP-92 NSCLC = tested on: HOP-92 NSCLC
HT29 colon = tested on: HT29 colon
IGROV1 ovarian = tested on: IGROV1 ovarian
K-562 leukemia = tested on: K-562 leukemia
KM12 colon = tested on: KM12 colon
KM20L2 colon = tested on: KM20L2 colon
LOX IMVI melanoma = tested on: LOX IMVI melanoma
M19-MEL melanoma = tested on: M19-MEL melanoma
MALME-3M melanoma = tested on: MALME-3M melanoma
MCF7 breast = tested on: MCF7 breast
MOLT-4 leukemia = tested on: MOLT-4 leukemia
NCI-H226 lung = tested on: NCI-H226 lung
NCI-H23 lung = tested on: NCI-H23 lung
NCI-H460 lung = tested on: NCI-H460 lung
NCI-H522 lung = tested on: NCI-H522 lung
NCI/ADR-RES ovarian = tested on: NCI/ADR-RES ovarian
OVCAR-3 ovarian = tested on: OVCAR-3 ovarian
OVCAR-4 ovarian = tested on: OVCAR-4 ovarian
OVCAR-5 ovarian = tested on: OVCAR-5 ovarian
OVCAR-8 ovarian = tested on: OVCAR-8 ovarian
P388 leukemia = tested on: P388 leukemia
RPMI-8226 leukemia = tested on: RPMI-8226 leukemia
RXF 393 renal = tested on: RXF 393 renal
SF-268 CNS = tested on: SF-268 CNS
SF-295 CNS = tested on: SF-295 CNS
SF-539 CNS = tested on: SF-539 CNS
SK-MEL-2 melanoma = tested on: SK-MEL-2 melanoma
SK-MEL-28 melanoma = tested on: SK-MEL-28 melanoma
SK-MEL-5 melanoma = tested on: SK-MEL-5 melanoma
SK-OV-3 ovarian = tested on: SK-OV-3 ovarian
SN12C renal = tested on: SN12C renal
SN12K1 renal = tested on: SN12K1 renal
SNB-19 CNS = tested on: SNB-19 CNS
SNB-75 CNS = tested on: SNB-75 CNS
SNB-78 CNS = tested on: SNB-78 CNS
SW-620 colon = tested on: SW-620 colon
U251 CNS = tested on: U251 CNS
UACC-257 melanoma = tested on: UACC-257 melanoma
UACC-62 melanoma = tested on: UACC-62 melanoma
UO-31 renal = tested on: UO-31 renal
XF 498 CNS = tested on: XF 498 CNS
786-0 renal = tested on: 786-0 renal
ACHN renal = tested on: ACHN renal
CAKI-1 renal = tested on: CAKI-1 renal
LXFL 529 NSCLC = tested on: LXFL 529 NSCLC
M14 melanoma = tested on: M14 melanoma
RXF-631 renal = tested on: RXF-631 renal
SR leukemia = tested on: SR leukemia
TK-10 renal = tested on: TK-10 renal

COc1cc([C@@H]2c3cc4c(c(O[C@@H]5O[C@H]6CO[C@@H](C)O[C@H]6[C@H](O)[C@@H]5O)c3C[C@H]3COC(=O)[C@@H]32)OCO4)cc(OC)c1O
TGI (A498 renal): > 100 µM
TGI (A549 NSCLC): > 100 µM
TGI (CCRF-CEM leukemia): > 100 µM
TGI (COLO 205 colon): > 100 µM
TGI (DLD-1 colon): > 100 µM
TGI (DMS 114 small cell lung): > 31.1 µM
TGI (DMS 273 small cell lung): > 100 µM
TGI (EKVX NSCLC): > 100 µM
TGI (HCC-2998 colon): > 81.1 µM
TGI (HCT-116 colon): > 44.6 µM
TGI (HCT-15 colon): > 100 µM
TGI (HL-60(TB) leukemia): > 38.9 µM
TGI (HOP-18 NSCLC): > 100 µM
TGI (HOP-62 NSCLC): > 100 µM
TGI (HOP-92 NSCLC): > 100 µM
TGI (HT29 colon): > 100 µM
TGI (IGROV1 ovarian): > 100 µM
TGI (K-562 leukemia): > 100 µM
TGI (KM12 colon): > 79.6 µM
TGI (KM20L2 colon): > 100 µM
TGI (LOX IMVI melanoma): > 100 µM
TGI (M19-MEL melanoma): > 100 µM
TGI (MALME-3M melanoma): > 100 µM
TGI (MCF7 breast): > 100 µM
TGI (MOLT-4 leukemia): > 100 µM
TGI (NCI-H226 lung): 20.8 µM
TGI (NCI-H23 lung): > 100 µM
TGI (NCI-H460 lung): > 100 µM
TGI (NCI-H522 lung): 6.42 µM
TGI (NCI/ADR-RES ovarian): 37.1 µM
TGI (OVCAR-3 ovarian): 20.6 µM
TGI (OVCAR-4 ovarian): > 53.3 µM
TGI (OVCAR-5 ovarian): > 100 µM
TGI (OVCAR-8 ovarian): > 100 µM
TGI (P388 leukemia): 4.82 µM
TGI (RPMI-8226 leukemia): > 100 µM
TGI (RXF 393 renal): > 100 µM
TGI (SF-268 CNS): > 79.5 µM
TGI (SF-295 CNS): 22.5 µM
TGI (SF-539 CNS): 7.79 µM
TGI (SK-MEL-2 melanoma): > 100 µM
TGI (SK-MEL-28 melanoma): > 100 µM
TGI (SK-MEL-5 melanoma): > 100 µM
TGI (SK-OV-3 ovarian): > 92.9 µM
TGI (SN12C renal): > 100 µM
TGI (SN12K1 renal): > 45.1 µM
TGI (SNB-19 CNS): > 100 µM
TGI (SNB-75 CNS): > 100 µM
TGI (SNB-78 CNS): > 100 µM
TGI (SW-620 colon): > 100 µM
TGI (U251 CNS): > 46.8 µM
TGI (UACC-257 melanoma): > 100 µM
TGI (UACC-62 melanoma): > 100 µM
TGI (UO-31 renal): > 100 µM
TGI (XF 498 CNS): > 100 µM

CC1NOC(=O)C1N=Nc1ccccc1Br (centres undefined)
TGI (786-0 renal): 39.8 µM
TGI (A498 renal): 51.3 µM
TGI (A549 NSCLC): 69 µM
TGI (ACHN renal): > 100 µM
TGI (CAKI-1 renal): 38.4 µM
TGI (CCRF-CEM leukemia): 74.2 µM
TGI (COLO 205 colon): 35.7 µM
TGI (DLD-1 colon): > 100 µM
TGI (DMS 114 small cell lung): 35.7 µM
TGI (DMS 273 small cell lung): > 100 µM
TGI (EKVX NSCLC): 80.3 µM
TGI (HCC-2998 colon): > 100 µM
TGI (HCT-116 colon): 92.8 µM
TGI (HCT-15 colon): 84.8 µM
TGI (HL-60(TB) leukemia): 40.8 µM
TGI (HOP-18 NSCLC): > 100 µM
TGI (HOP-62 NSCLC): > 100 µM
TGI (HOP-92 NSCLC): 52.2 µM
TGI (HT29 colon): > 100 µM
TGI (IGROV1 ovarian): > 100 µM
TGI (K-562 leukemia): 52.8 µM
TGI (KM12 colon): 44.8 µM
TGI (KM20L2 colon): > 100 µM
TGI (LOX IMVI melanoma): > 100 µM
TGI (LXFL 529 NSCLC): 31.2 µM
TGI (M14 melanoma): 43.3 µM
TGI (M19-MEL melanoma): 35.8 µM
TGI (MALME-3M melanoma): 50.5 µM
TGI (MOLT-4 leukemia): 67 µM
TGI (NCI-H226 lung): 81.2 µM
TGI (NCI-H23 lung): 49.1 µM
TGI (NCI-H460 lung): 57.9 µM
TGI (NCI-H522 lung): 33.8 µM
TGI (OVCAR-3 ovarian): 43.8 µM
TGI (OVCAR-4 ovarian): > 100 µM
TGI (OVCAR-5 ovarian): > 100 µM
TGI (OVCAR-8 ovarian): 44.9 µM
TGI (RPMI-8226 leukemia): 91.6 µM
TGI (RXF 393 renal): 32 µM
TGI (RXF-631 renal): > 100 µM
TGI (SF-268 CNS): 66 µM
TGI (SF-295 CNS): > 100 µM
TGI (SF-539 CNS): 51.2 µM
TGI (SK-MEL-2 melanoma): 36.7 µM
TGI (SK-MEL-28 melanoma): 79.8 µM
TGI (SK-MEL-5 melanoma): 29.1 µM
TGI (SK-OV-3 ovarian): 99 µM
TGI (SN12C renal): 59.5 µM
TGI (SNB-19 CNS): > 100 µM
TGI (SNB-75 CNS): 64 µM
TGI (SNB-78 CNS): 88.8 µM
TGI (SR leukemia): 58.2 µM
TGI (SW-620 colon): 30.9 µM
TGI (TK-10 renal): 57.4 µM
TGI (U251 CNS): 46.1 µM
TGI (UACC-257 melanoma): 44 µM
TGI (UACC-62 melanoma): 48.1 µM
TGI (UO-31 renal): 33.1 µM
TGI (XF 498 CNS): 40 µM
